# “Also recorded” adds a separate entry of the source.
# Key:
# [1] = cited from earlier work
# [2] = system: iron-overloaded C. apella primates; assay: Chelator-induced iron clearance in iron-overloaded primates; type: in vivo, Cebus apella monkeys
# [3] = system: non iron-overloaded, bile duct-cannulated rats; settings: po 300 μmol/kg; cited from earlier work
# [4] = system: non iron-overloaded, bile duct-cannulated rats; type: in vivo, Sprague-Dawley rats
# [5] = system: rats; assay: Tissue iron decorporation in rats after 10 days of dosing; type: in vivo, Sprague-Dawley rats
# [6] = system: rats; assay: Ten-day toxicity trial in rats; type: in vivo, Sprague-Dawley rats
# [7] = pH 7.4
# [8] = Hydrolysis of ester 7 in rat plasma; type: in vitro ADME; settings: 37 °C, solubilized in DMSO
# [9] = Hydrolysis of ester 7 in monkey plasma; type: in vitro ADME, Cebus apella monkeys; settings: Cebus apella monkey plasma, 37 °C, solubilized in DMSO
# [10] = Control incubation of ester 7 with saline in place of plasma; type: in vitro ADME; settings: 37 °C, 1 or 2 h
# [11] = clinical trial abandoned by Genzyme; cited from earlier work
# [12] = po 75 μmol/kg by gavage as monosodium salt
# [13] = orally once daily 384 μmol/kg/d × 10 d
smiles,measurement,setting,value
"COCCOCCOCCOc1ccc(C2=N[C@@](C)(C(=O)O)CS2)c(O)c1 [Compound 4, (S)-4,5-dihydro-2-[2-hydroxy-4-(3,6,9-trioxadecyloxy)phenyl]-4-methyl-4-thiazolecarboxylic acid]",nephrotoxicity,[1],virtually absent of any nephrotoxicity
same,ICE in primates relative to the longer analogue 5,"[2]; monkey, in vivo",2.5
same,relative percentage of the iron excreted in the bile (rodents),[3],90%
same,relative percentage of the iron excreted in the urine (rodents),[3],10%
"COCCOCCOc1ccc(C2=N[C@@](C)(C(=O)O)CS2)c(O)c1 [Compound 6, (S)-4,5-dihydro-2-[2-hydroxy-4-(3,6-dioxaheptyloxy)phenyl]-4-methyl-4-thiazolecarboxylic acid]",Rodent Iron-Clearing Efficiency,"[4]; po 300 μmol/kg in capsules, 48 h sample collection period",> 26%
same,reduction in pancreatic iron vs untreated controls,"[5]; capsules, 384 μmol/kg/d × 10 d",not when it was dosed in capsules
same,reduction in pancreatic iron vs untreated controls,"[5]; gavage as sodium salt, 384 μmol/kg/d × 10 d",significant reduction in pancreatic iron
same,Primate Iron-Clearing Efficiency,[2]; [12],28.7 ± 12.4%
same,relative percentage of the iron excreted in the urine (primates),[2]; [12],17%
same,Primate Iron-Clearing Efficiency,[2]; po 75 μmol/kg in capsules,> 26%
same,relative percentage of the iron excreted in the feces (primates),[2]; po 75 μmol/kg in capsules,93%
same,Performance Ratio (mean ICEprimates/ICErodents),"[2]; primates given the monosodium salt by gavage, rodents capsules",1.1
same,histopathology,[6]; [13],no obvious histopathologies; also recorded: cannot be reliably differentiated histologically from the tissues from rats in Group 2; also recorded: no histological abnormalities noted between the treated and the control groups
"CCOC(=O)[C@@]1(C)CSC(c2ccc(OCCOCCOC)cc2O)=N1 [Compound 7, ethyl (S)-4,5-dihydro-2-[2-hydroxy-4-(3,6-dioxaheptyloxy)phenyl]-4-methyl-4-thiazolecarboxylate]",times more lipophilic than the parent 2,[7],"11,220 times"
same,decrease in cardiac iron vs untreated controls,"[5]; capsules, 192 μmol/kg/d × 10 d",Neither dose was associated with a reduction in pancreatic or cardiac iron content
same,reduction in pancreatic iron vs untreated controls,"[5]; capsules, 192 μmol/kg/d × 10 d",Neither dose was associated with a reduction in pancreatic or cardiac iron content
same,decrease in cardiac iron vs untreated controls,"[5]; capsules, 384 μmol/kg/d × 10 d",Neither dose was associated with a reduction in pancreatic or cardiac iron content
same,reduction in pancreatic iron vs untreated controls,"[5]; capsules, 384 μmol/kg/d × 10 d",Neither dose was associated with a reduction in pancreatic or cardiac iron content
same,time for conversion of all of the ester to the active acid 6,[8],1 to 2 h
same,time for conversion of all of the ester to the active acid 6,[9],1 to 2 h
same,stability of the ester in saline,[10],all of the drug remained in the form of the ester
same,histopathology,[6]; [13],Mild to moderate vacuolar degeneration of the proximal tubular epithelial cells; also recorded: unacceptable renal toxicity
same,histopathology,[6]; orally once daily in capsules 192 μmol/kg/d × 10 d,no drug-related abnormalities
"COc1ccc(C2=N[C@@](C)(C(=O)[O-])CS2)c(O)c1.[Na+] [Compound 3, (S)-4,5-dihydro-2-(2-hydroxy-4-methoxyphenyl)-4-methyl-4-thiazolecarboxylic acid]",nephrotoxicity,[1],very nephrotoxic; also recorded: unacceptably nephrotoxic
same,relative percentage of the iron excreted in the bile (rodents),[3],98%
same,relative percentage of the iron excreted in the urine (rodents),[3],2%
"COCCOCCOCCOCCOc1ccc(C2=N[C@@](C)(C(=O)[O-])CS2)c(O)c1.[Na+] [Compound 5, (S)-4,5-dihydro-2-[2-hydroxy-4-(3,6,9,12-tetraoxatridecyloxy)phenyl]-4-methyl-4-thiazolecarboxylic acid]",ICE in rodents relative to the parent 2,[4]; po 300 μmol/kg,~11 times
"C[C@]1(C(=O)O)CSC(c2ncccc2O)=N1 [Compound 1, (S)-4,5-dihydro-2-(3-hydroxy-2-pyridinyl)-4-methyl-4-thiazolecarboxylic acid]",nephrotoxicity,[1],severely nephrotoxic
"C[C@]1(C(=O)[O-])CSC(c2ccc(O)cc2O)=N1.[Na+] [Compound 2, (S)-2-(2,4-dihydroxyphenyl)-4,5-dihydro-4-methyl-4-thiazolecarboxylic acid]",toxicity that led to abandonment of the clinical trial,[11],nephrotoxicity; also recorded: renal toxicity
same,relative percentage of the iron excreted in the bile (rodents),[3],100%
same,relative percentage of the iron excreted in the urine (rodents),[3],0%

# — publication PMC2951135 (Journal of medicinal chemistry, 2010)
